According to patent US10294246B2, “Substituted boronic acids and boronate esters as immunoproteasome inhibitors” (MERCK PATENT GMBH, priority 2014, dated 2019):

Key:
[1] = target: human immunoproteasome (LMP7) (Homo sapiens (Human), UniProt P28062); assay: Determination of LMP7 activity (fluorescence intensity assay, Suc-LLVY-AMC); format: biochemical; details: for Selectivity LMP7 vs Beta5: LMP7 versus Beta5; for IC50: purified human immunoproteasome 0.25 nM, Suc-LLVY-AMC 40 μM
Procedure, shortened: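 0.25 nM purified human immunoproteasome preincubated 20 min at 25 °C with serially diluted compounds in 50 mM Tris pH 7.4, 0.03% SDS, 1 mM EDTA, 1% DMSO. Reaction started with 40 μM Suc-LLVY-AMC, run 60 min at 37 °C. Fluorescence read at ex 350/em 450 nm.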

[2] = target: human constitutive proteasome (Beta5) (Homo sapiens (Human), UniProt P28074); assay: Determination of Beta5 activity (fluorescence intensity assay, Suc-LLVY-AMC); format: biochemical; details: purified human constitutive proteasome 1.25 nM, Suc-LLVY-AMC 40 μM
Procedure, shortened: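 Purified constitutive proteasome (1.25 nM) was preincubated with compounds 20 min at 25 °C in 50 mM Tris pH 7.4, 0.03% SDS, 1 mM EDTA, 1% DMSO. Suc-LLVY-AMC (40 μM) was then added for 60 min at 37 °C. AMC fluorescence was read at ex 350/em 450 nm.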

| Structure (SMILES) | Selectivity LMP7 vs Beta5 [1] | IC50 [1] [nM] | IC50 [2] [nM] |
| --- | --- | --- | --- |
| COc1ccc(CC(=O)N[C@@H](C[C@H]2COc3c(C)cccc32)B(O)O)cc1 [Compound No. 88, [(1R)-1-[[2-(4-methoxyphenyl)acetyl]amino]-2-[(3R)-7-methyl-2,3-dihydrobenzofuran-3-yl]ethyl]boronic acid] | +++++ (Selectivity ≥ 100) | 50 to 500 | > 5000 |
| COc1ccc(CC(=O)N[C@@H](C[C@@H]2COc3c(C)cccc32)B(O)O)cc1 [Compound No. 89, [(1R)-1-[[2-(4-methoxyphenyl)acetyl]amino]-2-[(3S)-7-methyl-2,3-dihydrobenzofuran-3-yl]ethyl]boronic acid] | +++++ (Selectivity ≥ 100) | < 50 | > 5000 |
| N#Cc1ccccc1CC(=O)N[C@@H](Cc1coc2ccccc12)B(O)O [Compound No. 90, [(1R)-2-(benzofuran-3-yl)-1-[[2-(2-cyanophenyl)acetyl]amino]ethyl]-boronic acid] | +++++ (Selectivity ≥ 100) | < 50 | 500 to 5000 |
| CC(C)(O)c1ccc(CC(=O)N[C@@H](Cc2coc3ccccc23)B(O)O)cc1 [Compound No. 91, [(1R)-2-(benzofuran-3-yl)-1-[[2-[4-(1-hydroxy-1-methyl-ethyl)phenyl]acetyl]amino]ethyl]boronic acid] | +++++ (Selectivity ≥ 100) | < 50 | 50 to 500 |
| COc1cccc2c(C[C@H](NC(=O)Cc3ccccc3)B(O)O)coc12 [Compound No. 92, [(1R)-2-(7-methoxybenzofuran-3-yl)-1-[(2-phenylacetyl)amino]ethyl]-boronic acid] | +++++ (Selectivity ≥ 100) | < 50 | 50 to 500 |
| CO[C@@H](C(=O)N[C@@H](CC1COc2c(C)cccc21)B(O)O)c1ccccc1 (stereo partly drawn) [Compound No. 93, [(1R)-1-[[(2R)-2-methoxy-2-phenyl-acetyl]amino]-2-(7-methyl-2,3-dihydrobenzofuran-3-yl)ethyl]boronic acid] | +++++ (Selectivity ≥ 100) | < 50 | > 5000 |
| Cc1ccc2c(C[C@H](NC(=O)Cc3ccccc3)B(O)O)coc2c1C [Compound No. 94, [(1R)-2-(6,7-dimethylbenzofuran-3-yl)-1-[(2-phenylacetyl)amino]ethyl]boronic acid] | +++++ (Selectivity ≥ 100) | < 50 | 500 to 5000 |
| COc1ccc(CCC(=O)N[C@@H](Cc2coc3c(C)c(C)ccc23)B(O)O)nc1 [Compound No. 95, [(1R)-2-(6,7-dimethylbenzofuran-3-yl)-1-[3-(5-methoxy-2-pyridyl)propanoylamino]ethyl]boronic acid] | +++++ (Selectivity ≥ 100) | < 50 | 500 to 5000 |
| C[C@H](C(=O)N[C@@H](Cc1coc2ccccc12)B(O)O)c1ccccc1C(=O)N(C)C [Compound No. 96, [(1R)-2-(benzofuran-3-yl)-1-[[(2S)-2-[2-(dimethylcarbamoyl)phenyl]-propanoyl]amino]ethyl]boronic acid] | +++++ (Selectivity ≥ 100) | 50 to 500 | > 5000 |
| C[C@@H](C(=O)N[C@@H](Cc1coc2ccccc12)B(O)O)c1ccccc1C(=O)N(C)C [Compound No. 97, [(1R)-2-(benzofuran-3-yl)-1-[[(2R)-2-[2-(dimethylcarbamoyl)-phenyl]propanoyl]amino]ethyl]boronic acid] | +++++ (Selectivity ≥ 100) | 50 to 500 | > 5000 |
| O=C(Cc1ccccc1-c1ccccc1)N[C@@H](Cc1coc2ccccc12)B(O)O [Compound No. 98, [(1R)-2-(benzofuran-3-yl)-1-[[2-(2-phenylphenyl)acetyl]amino]-ethyl]boronic acid] | ++++ (70 ≤ Selectivity < 100) | < 50 | 500 to 5000 |
| C[C@@H](C(=O)N[C@@H](C[C@@H]1COc2ccccc21)B(O)O)c1ccccc1C(=O)N(C)C [Compound No. 99, [(1R)-2-[(3S)-2,3-dihydrobenzofuran-3-yl]-1-[[(2R)-2-[2-(dimethylcarbamoyl)phenyl]propanoyl]amino]ethyl]boronic acid] | +++++ (Selectivity ≥ 100) | 50 to 500 | > 5000 |
| Cc1cccc2c1OCC2C[C@H](NC(=O)Cc1ccccc1C(=O)N(C)C)B(O)O (stereo partly drawn) [Compound No. 100, [(1R)-1-[[2-[2-(dimethylcarbamoyl)phenyl]acetyl]amino]-2-(7-methyl-2,3-dihydrobenzofuran-3-yl)ethyl]boronic acid] | +++++ (Selectivity ≥ 100) | 50 to 500 | > 5000 |
| Cc1ccc2c(c1C)OCC2C[C@H](NC(=O)Cc1ccccc1)B(O)O (stereo partly drawn) [Compound No. 101, [(1R)-2-(6,7-dimethyl-2,3-dihydrobenzofuran-3-yl)-1-[(2-phenylacetyl)-amino]ethyl]boronic acid] | +++++ (Selectivity ≥ 100) | < 50 | > 5000 |
| COc1ccc(CCC(=O)N[C@@H](CC2COc3c2ccc(C)c3C)B(O)O)nc1 (stereo partly drawn) [Compound No. 102, [(1R)-2-(6,7-dimethyl-2,3-dihydrobenzofuran-3-yl)-1-[3-(5-methoxy-2-pyridyl)propanoylamino]ethyl]boronic acid] | +++++ (Selectivity ≥ 100) | 50 to 500 | > 5000 |
| CC(=O)Nc1ccccc1CC(=O)N[C@@H](Cc1coc2ccccc12)B(O)O [Compound No. 103, [(1R)-1-[[2-(2-acetamidophenyl)acetyl]amino]-2-(benzofuran-3-yl)ethyl]boronic acid] | ++++ (70 ≤ Selectivity < 100) | – | 500 to 5000 |
| Cc1cccc2c(C[C@H](NC(=O)Cc3ccccc3C#N)B(O)O)coc12 [Compound No. 104, [(1R)-1-[[2-(2-cyanophenyl)acetyl]amino]-2-(7-methylbenzofuran-3-yl)ethyl]boronic acid] | +++++ (Selectivity ≥ 100) | < 50 | 500 to 5000 |
| N#Cc1ccccc1CC(=O)N[C@@H](C[C@@H]1COc2ccccc21)B(O)O [Compound No. 105, [(1R)-1-[[2-(2-cyanophenyl)acetyl]amino]-2-[(3S)-2,3-dihydrobenzofuran-3-yl]ethyl]boronic acid] | +++++ (Selectivity ≥ 100) | < 50 | 500 to 5000 |
| C[C@H](C(=O)N[C@@H](C[C@H]1COc2ccccc21)B(O)O)c1ccccc1C(=O)N(C)C [Compound No. 106, [(1R)-2-[(3R)-2,3-dihydrobenzofuran-3-yl]-1-[[(2S)-2-[2-(dimethylcarbamoyl)phenyl]propanoyl]amino]ethyl]boronic acid] | +++++ (Selectivity ≥ 100) | < 50 | > 5000 |
| C[C@H](C(=O)N[C@@H](C[C@@H]1COc2ccccc21)B(O)O)c1ccccc1C(=O)N(C)C [Compound No. 107, [(1R)-2-[(3S)-2,3-dihydrobenzofuran-3-yl]-1-[[(2S)-2-[2-(dimethylcarbamoyl)phenyl]propanoyl]amino]ethyl]boronic acid] | ++ (10 ≤ Selectivity < 50) | 500 to 5000 | > 5000 |
